Results from ChEMBL document CHEMBL1137236, “Synthesis and neuroprotective effects of serofendic acid analogues” (2006).

Columns and labels:
[1] = system: Cortical neurone; assay: Protective effect against L-glutamate-induced neurotoxicity in rat primary cortical neurons at 10 uM by trypan blue exclusion method; type: functional
[2] = system: Cortical neurone; assay: Protective effect against L-glutamate-induced neurotoxicity in rat primary cortical neurons at 1 uM by trypan blue exclusion method; type: functional

SMILES | Activity [1] [%] | Activity [2] [%]
C[S+]([O-])C[C@@H]1[C@H]2CC[C@@]3(CC[C@H]4[C@@](C)(CCC[C@@]4(C)C(=O)O)[C@@H]3C2)[C@H]1O (stereo partly specified) | 33.7 | –
C[S+]([O-])C[C@H]1[C@H]2CC[C@@]3(CC[C@@H]4[C@](C)(CO)CCC[C@@]4(C)[C@@H]3C2)[C@@H]1O (stereo partly specified) | 7.79 | –
C[S+]([O-])C[C@@H]1C(=O)[C@]23CC[C@H]1C[C@H]2[C@]1(C)CCC[C@@](C)(C(=O)O)[C@H]1CC3 (stereo partly specified) | 41.5 | –
C[S+]([O-])CC1=C[C@]23CC[C@H]1C[C@H]2[C@]1(C)CCC[C@@](C)(C(=O)O)[C@H]1CC3 (stereo partly specified) | 15.6 | –
C[C@@]12CCC[C@@](C)(C(=O)O)[C@H]1CC[C@@]13CC[C@@H](C[C@@H]21)[C@H](CS(C)(=O)=O)[C@H]3O | 20 | –
C[S+]([O-])C[C@H]1[C@H]2CC[C@@]3(CC[C@H]4[C@@](C)(CCC[C@@]4(C)C(=O)O)[C@@H]3C2)[C@@H]1O (stereo partly specified) [SEROFENDIC ACID] | 45.3 | –
CSC[C@H]1[C@H]2CC[C@@]3(CC[C@H]4[C@@](C)(CCC[C@@]4(C)C(=O)O)[C@@H]3C2)[C@@H]1O | 39.8 | –
COC(=O)[C@]1(C)CCC[C@@]2(C)[C@@H]3C[C@@H]4CC[C@@]3(CC[C@@H]21)[C@H](O)[C@H]4C[S+](C)[O-] (stereo partly specified) | 20.5 | –
C[S+]([O-])C[C@H]1[C@H]2CC[C@@]3(CC[C@@H]4C(C)(C)CCC[C@@]4(C)[C@@H]3C2)[C@@H]1O (stereo partly specified) | 13.1 | –
C[C@]12N[C@H](Cc3ccccc31)c1ccccc12.O=C(O)/C=C\C(=O)O [DIZOCILPINE MALEATE] | – | 80.7
C[S+]([O-])CC1C[C@]23CC[C@H]1C[C@H]2[C@]1(C)CCC[C@@](C)(C(=O)O)[C@H]1CC3 (stereo partly specified) | 18.1 | –
